Experimental data published in publication PMC8214221, “Sequence determinants in the cathelicidin LL-37 that promote inflammation via presentation of RNA to scavenger receptors” (The Journal of Biological Chemistry, 2021).
Residues, ends and D or L forms follow the SMILES beside them.

Target: T1, scavenger receptor SRB1 (Homo sapiens, UniProt Q8WTV0)
T1 construct: host or cells: NHEK (normal human epidermal keratinocytes)
T1 sequence (Q8WTV0 1-552): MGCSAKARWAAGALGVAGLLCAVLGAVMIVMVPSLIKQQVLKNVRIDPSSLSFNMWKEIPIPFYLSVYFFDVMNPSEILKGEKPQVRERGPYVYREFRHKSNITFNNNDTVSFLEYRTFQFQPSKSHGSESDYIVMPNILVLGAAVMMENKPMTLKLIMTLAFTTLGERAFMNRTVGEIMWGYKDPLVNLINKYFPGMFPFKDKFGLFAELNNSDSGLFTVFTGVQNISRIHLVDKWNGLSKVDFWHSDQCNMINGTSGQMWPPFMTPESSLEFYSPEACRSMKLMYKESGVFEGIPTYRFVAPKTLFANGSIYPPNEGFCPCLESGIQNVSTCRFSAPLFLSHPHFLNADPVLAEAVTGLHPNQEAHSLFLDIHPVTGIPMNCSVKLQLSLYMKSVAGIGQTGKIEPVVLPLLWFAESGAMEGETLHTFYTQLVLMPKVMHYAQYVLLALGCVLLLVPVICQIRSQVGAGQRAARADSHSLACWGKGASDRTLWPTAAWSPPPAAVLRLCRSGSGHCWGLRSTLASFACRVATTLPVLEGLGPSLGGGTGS
Test: Proximity ligation assay (PLA) on NHEKs
Type: cell-based
Settings: peptide 2 μM 15 min, then biotinylated U1 dsRNA 2 μg/ml 60 min at 4 °C, spatial correlation <40 nm, n = 3
Protocol: Figure 4 LL-34 enables U1 dsRNA association with scavenger receptor (SR) SRB1.A and B, NHEKs with gene knockdown for SRs SCARB1, SCARB1, SCARA3, CD36, LRP1, CD163L1, CXCL16, MSR1, MARCO, and OLR1 were cotreated with U1 dsRNA (2.5 μg/ml) and LL-34 (2 μM) for 18 h. Gene expression of IFNB1 and CXCL10 was assessed with quantitative RT-PCR (n = 3). C, proximity ligation assay (PLA) for U1 dsRNA and SR SRB1 binding. NHEKs were treated with LL-34-parent, LL-34-I24A, and LL-34-L31A (2 μM) for 15 min, followed by treatment with biotinylated U1 dsRNA (2 μg/ml) for 60 min at 4 °C. The physical proximity of LL-34 and SRB1 (C), and U1 dsRNA, and SRB1 (D) was determined with fluorescence-based PLA that produces a red fluorescent signal. DAPI (blue) was used as a nuclear counterstain. The scale bar represents 50 μm. Signal counts of C and D from five visual fields were used for PLA signal quantification, as shown in E and F (n = 3). (∗p < 0.05; ∗∗p < 0.01; ∗∗∗p < 0.001; ∗∗∗∗p < 0.0001). […]
The binding of peptide to SRB1 or U1 to SRB1 was assessed by proximity ligation assay (PLA) (Fig. 4, C–E).
PLA was performed as described previously ([30]). […] PLA signals were captured on Olympus BX41 microscope (widefield) with 40× objective and counted by Duolink ImageTool software, version 1.0 (Sigma–Aldrich). Five fields were captured per treatment for quantification of PLA signals with ImageTool software. […]

Row | Structure (SMILES) | Localization of peptide with SRB1 (PLA)
1 | CC[C@H](C)[C@H](NC(=O)[C@H](CCCCN)NC(=O)[C@H](CCC(=O)O)NC(=O)[C@H](CCCCN)NC(=O)[C@H](CO)NC(=O)[C@H](CCCCN)NC(=O)[C@H](CCCNC(=N)N)NC(=O)[C@H](Cc1ccccc1)NC(=O)[C@H](Cc1ccccc1)NC(=O)[C@H](CC(=O)O)NC(=O)CNC(=O)[C@H](CC(C)C)NC(=O)[C@@H](N)CC(C)C)C(=O)NCC(=O)N[C@@H](CCCCN)C(=O)N[C@@H](CCC(=O)O)C(=O)N[C@@H](Cc1ccccc1)C(=O)N[C@@H](CCCCN)C(=O)N[C@@H](CCCNC(=N)N)C(=O)N[C@H](C(=O)N[C@H](C(=O)N[C@@H](CCC(N)=O)C(=O)N[C@@H](CCCNC(=N)N)C(=O)N[C@H](C(=O)N[C@@H](CCCCN)C(=O)N[C@@H](CC(=O)O)C(=O)N[C@@H](Cc1ccccc1)C(=O)N[C@@H](CC(C)C)C(=O)N[C@@H](CCCNC(=N)N)C(=O)N[C@@H](CC(N)=O)C(=O)N[C@@H](C)C(=O)N[C@H](C(=O)N1CCC[C@H]1C(=O)N[C@@H](CCCNC(=N)N)C(=O)O)C(C)C)[C@@H](C)CC)C(C)C)[C@@H](C)CC [LL-34—L31A] (H-LLGDFFRKSKEKIGKEFKRIVQRIKDFLRNAVPR-OH) | did not achieve close localization
2 | CC[C@H](C)[C@H](NC(=O)[C@H](CCCCN)NC(=O)[C@H](CCC(=O)O)NC(=O)[C@H](CCCCN)NC(=O)[C@H](CO)NC(=O)[C@H](CCCCN)NC(=O)[C@H](CCCNC(=N)N)NC(=O)[C@H](Cc1ccccc1)NC(=O)[C@H](Cc1ccccc1)NC(=O)[C@H](CC(=O)O)NC(=O)CNC(=O)[C@H](CC(C)C)NC(=O)[C@@H](N)CC(C)C)C(=O)NCC(=O)N[C@@H](CCCCN)C(=O)N[C@@H](CCC(=O)O)C(=O)N[C@@H](Cc1ccccc1)C(=O)N[C@@H](CCCCN)C(=O)N[C@@H](CCCNC(=N)N)C(=O)N[C@H](C(=O)N[C@H](C(=O)N[C@@H](CCC(N)=O)C(=O)N[C@@H](CCCNC(=N)N)C(=O)N[C@@H](C)C(=O)N[C@@H](CCCCN)C(=O)N[C@@H](CC(=O)O)C(=O)N[C@@H](Cc1ccccc1)C(=O)N[C@@H](CC(C)C)C(=O)N[C@@H](CCCNC(=N)N)C(=O)N[C@@H](CC(N)=O)C(=O)N[C@@H](CC(C)C)C(=O)N[C@H](C(=O)N1CCC[C@H]1C(=O)N[C@@H](CCCNC(=N)N)C(=O)O)C(C)C)C(C)C)[C@@H](C)CC [LL-34—I24A] (H-LLGDFFRKSKEKIGKEFKRIVQRAKDFLRNLVPR-OH) | did not achieve close localization
